Assay results reported in patent publication US10844051B2, “Substituted oxazoles for the treatment of cancer” (THE ROYAL INSTITUTION FOR THE ADCANCEMENT OF …, priority 2015, dated 2020).

system: hSTING and/or mSTING; assay: hSTING- or mSTING-dependent ISRE-luc reporter assay in 293T cells; assay type: cell-based; details: 24 hours
Description: ISRE-luc (reporter), pRL-TK (internal control) and hSTING- or mSTING-expressing plasmids were transiently transfected into 293T cells. Cells were exposed to DMSO vehicle control or compounds for 24 hours. Experiments were done in triplicate.

| SMILES | activation of hSTING and/or mSTING in ISRE-luc reporter assay |
| --- | --- |
| N#Cc1cccc(CN2CCN(Cc3nc(-c4ccccc4)c(-c4ccccc4)o3)CC2)c1 [Compound 1360] | activate hSTING and/or mSTING |
| N#Cc1ccc(CN2CCN(Cc3nc(-c4ccccc4)c(-c4ccccc4)o3)CC2)cc1 [Compound 1361] | activate hSTING and/or mSTING |
| N#Cc1ccccc1CN1CCN(Cc2nc(-c3ccccc3)c(-c3ccccc3)o2)CC1 [Compound 1364] | activate hSTING and/or mSTING |
| Cc1cccnc1CN1CCN(Cc2nc(-c3ccccc3)c(-c3ccccc3)o2)CC1 [Compound 1366] | activate hSTING and/or mSTING |
| c1ccc(-c2nc(CNCCc3c[nH]c4ccccc34)[nH]c2-c2ccccc2)cc1 [Compound 1369] | activate hSTING and/or mSTING |
| COCCN1CCN(Cc2nc(-c3ccccc3)c(-c3ccccc3)o2)CC1 [Compound 1370] | activate hSTING and/or mSTING |
| C=CCN(CCc1c[nH]c2ccccc12)Cc1nc(-c2ccccc2)c(-c2ccccc2)o1 [Compound 1372] | activate hSTING and/or mSTING |
| O=[N+]([O-])c1ccccc1S(=O)(=O)N(CCc1c[nH]c2ccccc12)Cc1nc(-c2ccccc2)c(-c2ccccc2)[nH]1 [Compound 1373] | activate hSTING and/or mSTING |

target: T1, human GATA2 (Homo sapiens, UniProt P23769); assay: GATA2-dependent reporter assay in IHH cells; assay type: cell-based; details: GATA-Luc reporter, 48 h
T1 construct: expressed in transfected cells; host or cells: IHH
T1 sequence (P23769 1-480): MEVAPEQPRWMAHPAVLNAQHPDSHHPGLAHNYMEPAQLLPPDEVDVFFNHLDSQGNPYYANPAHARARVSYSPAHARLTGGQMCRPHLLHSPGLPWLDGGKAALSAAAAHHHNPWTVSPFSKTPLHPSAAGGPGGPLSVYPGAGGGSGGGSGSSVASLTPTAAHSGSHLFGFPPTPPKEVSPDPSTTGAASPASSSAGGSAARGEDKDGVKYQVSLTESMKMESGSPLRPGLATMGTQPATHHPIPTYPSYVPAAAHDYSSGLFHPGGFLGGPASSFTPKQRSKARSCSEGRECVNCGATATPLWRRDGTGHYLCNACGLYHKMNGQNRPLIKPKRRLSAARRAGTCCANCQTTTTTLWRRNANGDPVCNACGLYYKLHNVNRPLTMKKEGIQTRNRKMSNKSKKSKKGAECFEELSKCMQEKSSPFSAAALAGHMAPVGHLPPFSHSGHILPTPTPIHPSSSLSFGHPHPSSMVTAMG
Description: K7174 is a known GATA2 inhibitor. The IHH cells were transiently transfected with empty vector (for the NT) or human GATA2-expressing plasmid as well as pRL-TK (internal control) and GATA-Luc reporter plasmids. Cells were exposed to DMSO vehicle or compounds for 48 h. Experiments were in triplicate.

| SMILES | GATA2 inhibition in GATA2-dependent reporter assay |
| --- | --- |
| c1ccc(-c2nc(CCc3c[nH]c4ccccc34)oc2-c2ccccc2)cc1 [Compound 631] | GATA2 inhibitors |
| c1ccc(-c2nc(CCCc3c[nH]c4ccccc34)oc2-c2ccccc2)cc1 [Compound 632] | GATA2 inhibitors |
| COc1cccc(/C=C/c2nc(-c3ccccc3)c(-c3ccccc3)o2)c1 [Compound 684] | GATA2 inhibitors |
| C(=C\c1cccs1)/c1nc(-c2ccccc2)c(-c2ccccc2)o1 [Compound 685] | GATA2 inhibitors |
| COc1cccc(-c2nc(Cc3c[nH]c4ccccc34)oc2-c2cccc(O)c2)c1 [Compound 719] | GATA2 inhibitors |
| c1coc(-c2nc(CCCc3c[nH]c4ccccc34)oc2-c2ccco2)c1 [Compound 831] | GATA2 inhibitors |
| Fc1cccc(-c2[nH]c(Cc3c[nH]c4ccccc34)nc2-c2ccco2)c1 [Compound 839] | GATA2 inhibitors |
| COc1ccc(CC/C(=C/C(=O)N2CCC(O)(c3ccccc3)CC2)c2ccccc2)cc1 [Compound 858] | GATA2 inhibitors |
| O=C(/C=C(/CCc1ccccc1)c1ccccc1)N1CCC(O)(c2ccccc2)CC1 [Compound 859] | GATA2 inhibitors |
| O=C(/C=C(/CCc1cccc(F)c1)c1ccccc1)N1CCC(O)(c2ccccc2)CC1 [Compound 860] | GATA2 inhibitors |
| O=C1Nc2ccccc2C1CCc1nc(-c2cccc(F)c2)c(-c2cccc(F)c2)o1 (centres unmarked) [Compound 866] | GATA2 inhibitors |
| O=C(/C=C(/CCc1cccc(C(F)(F)F)c1)c1ccccc1)N1CCC(O)(c2ccccc2)CC1 [Compound 868] | GATA2 inhibitors |
| O=C(/C=C(/CCc1ccccc1)c1cccc(C(F)(F)F)c1)N1CCC(O)(c2ccccc2)CC1 [Compound 869] | GATA2 inhibitors |
| Cc1ccc(/C(=C\C(=O)N2CCC(O)(c3ccccc3)CC2)CCc2ccccc2)cc1 [Compound 870] | GATA2 inhibitors |
| COc1ccc(/C(=C\C(=O)N2CCC(O)(c3ccccc3)CC2)CCc2ccccc2)cc1 [Compound 871] | GATA2 inhibitors |
| O=C(/C=C(/C=C/c1cccc(C(F)(F)F)c1)c1ccccc1)N1CCC(O)(c2ccccc2)CC1 [Compound 872] | GATA2 inhibitors |
| O=C(C/C(=C\c1ccccc1)c1ccccc1)N1CCC(O)(c2ccccc2)CC1 [Compound 880] | GATA2 inhibitors |
| O=C(/C=C(/Cc1ccccc1)c1ccccc1)N1CCC(O)(c2ccccc2)CC1 [Compound 881] | GATA2 inhibitors |
| Cc1ccc(/C(=C\C(=O)N2CCC(O)(c3ccccc3)CC2)CCc2cccc(F)c2)cc1 [Compound 882] | GATA2 inhibitors |
| COc1ccc(/C(=C\C(=O)N2CCC(O)(c3ccccc3)CC2)CCc2ccccc2)cc1OC [Compound 883] | GATA2 inhibitors |

target: T2, ETV1 (Homo sapiens, UniProt P50549); assay: ETV1-dependent reporter assay in HEK293 cells; assay type: cell-based; details: 48 hours
T2 construct: expressed in transfected cells; host or cells: HEK293
T2 sequence (P50549 1-477): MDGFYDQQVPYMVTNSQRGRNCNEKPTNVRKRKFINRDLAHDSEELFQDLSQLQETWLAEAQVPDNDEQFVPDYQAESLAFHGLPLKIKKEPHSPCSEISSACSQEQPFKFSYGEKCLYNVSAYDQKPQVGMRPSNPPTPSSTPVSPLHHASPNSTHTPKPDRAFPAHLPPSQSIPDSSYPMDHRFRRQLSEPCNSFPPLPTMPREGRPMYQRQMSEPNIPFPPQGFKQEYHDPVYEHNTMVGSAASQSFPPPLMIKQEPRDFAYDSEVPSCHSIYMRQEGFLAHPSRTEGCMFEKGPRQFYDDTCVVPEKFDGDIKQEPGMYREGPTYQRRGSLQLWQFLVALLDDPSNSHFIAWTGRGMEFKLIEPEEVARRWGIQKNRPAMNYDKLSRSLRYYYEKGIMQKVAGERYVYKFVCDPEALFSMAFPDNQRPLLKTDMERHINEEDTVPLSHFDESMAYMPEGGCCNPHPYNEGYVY
Description: HEK293 cells were transiently transfected with empty vector (for the NT) or ERG-expressing plasmid as well as pRL-TK (internal control) and PUx3-Luc reporter. Cells were then exposed to DMSO vehicle or compounds at designated doses for 48 hours. Experiments were done in triplicate.
Experiments were done as described above in FIG. 1.1a) except that ERG plasmid was replaced by ETV1 plasmid.

| SMILES | ETV1 inhibition in ETV1-dependent reporter assay |
| --- | --- |
| Fc1ccc2[nH]cc(Cc3nc(-c4ccccc4)c(-c4ccccc4)o3)c2c1 [Compound 636] | ETV1 inhibitors |
| Cc1[nH]c2ccccc2c1Cc1nc(-c2ccccc2)c(-c2ccccc2)o1 [Compound 637] | ETV1 inhibitors |
| Cn1cc(Cc2nc(-c3ccccc3)c(-c3ccccc3)o2)c2ccccc21 [Compound 638] | ETV1 inhibitors |
| Fc1ccc(-c2nc(Cc3c[nH]c4ccccc34)oc2-c2ccc(F)cc2)cc1 [Compound 652] | ETV1 inhibitors |
| Cc1ccc(-c2nc(Cc3c[nH]c4ccccc34)oc2-c2ccc(C)cc2)cc1 [Compound 654] | ETV1 inhibitors |

target: T3, human STING (hSTING) (Homo sapiens, UniProt Q86WV6); assay: hSTING ISRE-luc reporter assay in 293T cells; assay type: cell-based; details: 24 hours
T3 construct: expressed in transfected cells; host or cells: 293T
Description: ISRE-luc (reporter), pRL-TK (internal control) and hSTING-expressing plasmids were transiently transfected into 293T cells. Cells were exposed to DMSO vehicle control or compounds for 24 hours. Experiments were done in triplicate.

T3 sequence (Q86WV6 whole entry H232R): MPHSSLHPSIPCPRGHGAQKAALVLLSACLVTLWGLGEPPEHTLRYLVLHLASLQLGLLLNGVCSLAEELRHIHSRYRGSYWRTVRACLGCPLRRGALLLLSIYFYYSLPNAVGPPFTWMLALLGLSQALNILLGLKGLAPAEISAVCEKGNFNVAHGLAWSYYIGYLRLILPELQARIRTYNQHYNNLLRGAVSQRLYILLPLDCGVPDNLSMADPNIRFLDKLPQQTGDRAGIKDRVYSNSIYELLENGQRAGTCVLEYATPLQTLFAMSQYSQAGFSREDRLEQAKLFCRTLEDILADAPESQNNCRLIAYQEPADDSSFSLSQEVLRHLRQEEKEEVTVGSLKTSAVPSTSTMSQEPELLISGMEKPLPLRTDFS

| SMILES | activation of hSTING in ISRE-luc reporter assay |
| --- | --- |
| COc1ccc(-c2nc(Cc3c[nH]c4ccccc34)oc2-c2ccc(OC)cc2)cc1 [Compound 660] | activate hSTING |
| Fc1ccc(-c2nc(CCCc3c[nH]c4ccccc34)oc2-c2ccc(F)cc2)cc1 [Compound 671] | activate hSTING |
| FC(F)(F)c1ccccc1-c1nc(CCCc2c[nH]c3ccccc23)oc1-c1ccccc1C(F)(F)F [Compound 677] | activate human STING (hSTING) |
| FC(F)(F)c1cc(CCc2nc(-c3ccccc3)c(-c3ccccc3)o2)cc(C(F)(F)F)c1 [Compound 689] | activate hSTING |
| Clc1cccc(-c2nc(CCCc3c[nH]c4ccccc34)oc2-c2cccc(Cl)c2)c1 [Compound 762] | activate human STING (hSTING) |
| c1coc(-c2nc(CCCc3c[nH]c4ccccc34)oc2-c2ccco2)c1 [Compound 831] | activate hSTING |
| COc1ccccc1-c1nc(CCCc2c[nH]c3ccccc23)oc1-c1ccccc1OC [Compound 916] | activate hSTING |
| COc1ccccc1-c1nc(CCc2c[nH]c3ccccc23)oc1-c1ccccc1OC [Compound 917] | activate hSTING |
| FC(F)(F)c1ccc(-c2nc(CCc3c[nH]c4ccccc34)oc2-c2ccc(C(F)(F)F)cc2)cc1 [Compound 918] | activate hSTING |
| c1coc(-c2nc(CCc3c[nH]c4ccccc34)oc2-c2ccco2)c1 [Compound 919] | activate hSTING |
| FC(F)(F)c1ccccc1-c1nc(CCc2c[nH]c3ccccc23)oc1-c1ccccc1C(F)(F)F [Compound 920] | activate hSTING |
